Results: PubChem BioAssay (NCI)
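Method: 48-hour compound exposure of cells in 96-well plates, five concentrations, linear interpolation of endpoints. The concentration for full growth arrest is given as TGI.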

What was measured:
Assay in all cases: NCI anticancer screen, dose series, 48 h
RXF 393 renal = test system: RXF 393 renal
OVCAR-8 ovarian = test system: OVCAR-8 ovarian
A549 NSCLC = test system: A549 NSCLC
HCT-116 colon = test system: HCT-116 colon
MDA-N = test system: MDA-N
MCF7 breast = test system: MCF7 breast
SF-268 CNS = test system: SF-268 CNS
SF-295 CNS = test system: SF-295 CNS
BT-549 breast = test system: BT-549 breast
HCT-15 colon = test system: HCT-15 colon
SW-620 colon = test system: SW-620 colon
T-47D breast = test system: T-47D breast
SF-539 CNS = test system: SF-539 CNS
NCI/ADR-RES ovarian = test system: NCI/ADR-RES ovarian
HS 578T breast = test system: HS 578T breast
MDA-MB-435 = test system: MDA-MB-435
A498 renal = test system: A498 renal
HL-60(TB) leukemia = test system: HL-60(TB) leukemia
SNB-19 CNS = test system: SNB-19 CNS
NCI-H522 lung = test system: NCI-H522 lung
COLO 205 colon = test system: COLO 205 colon
OVCAR-4 ovarian = test system: OVCAR-4 ovarian
EKVX NSCLC = test system: EKVX NSCLC
NCI-H460 lung = test system: NCI-H460 lung
SK-OV-3 ovarian = test system: SK-OV-3 ovarian
UACC-62 melanoma = test system: UACC-62 melanoma
MDA-MB-231 breast = test system: MDA-MB-231 breast
HT29 colon = test system: HT29 colon
786-0 renal = test system: 786-0 renal
K-562 leukemia = test system: K-562 leukemia
MOLT-4 leukemia = test system: MOLT-4 leukemia
SK-MEL-2 melanoma = test system: SK-MEL-2 melanoma
PC-3 prostate = test system: PC-3 prostate
NCI-H226 lung = test system: NCI-H226 lung
CCRF-CEM leukemia = test system: CCRF-CEM leukemia
SNB-75 CNS = test system: SNB-75 CNS
NCI-H23 lung = test system: NCI-H23 lung
SR leukemia = test system: SR leukemia
CAKI-1 renal = test system: CAKI-1 renal
KM12 colon = test system: KM12 colon
HCC-2998 colon = test system: HCC-2998 colon
ACHN renal = test system: ACHN renal
SK-MEL-5 melanoma = test system: SK-MEL-5 melanoma
UO-31 renal = test system: UO-31 renal
HOP-92 NSCLC = test system: HOP-92 NSCLC
DU-145 prostate = test system: DU-145 prostate
SN12C renal = test system: SN12C renal
IGROV1 ovarian = test system: IGROV1 ovarian
TK-10 renal = test system: TK-10 renal
MALME-3M melanoma = test system: MALME-3M melanoma
UACC-257 melanoma = test system: UACC-257 melanoma
OVCAR-5 ovarian = test system: OVCAR-5 ovarian
U251 CNS = test system: U251 CNS
M14 melanoma = test system: M14 melanoma
OVCAR-3 ovarian = test system: OVCAR-3 ovarian
HOP-62 NSCLC = test system: HOP-62 NSCLC
SK-MEL-28 melanoma = test system: SK-MEL-28 melanoma
LOX IMVI melanoma = test system: LOX IMVI melanoma
RPMI-8226 leukemia = test system: RPMI-8226 leukemia

Measured: TGI

O=S(=O)(Nc1ccccc1)c1ccc(-c2c3nc(c(-c4ccc(S(=O)(=O)Nc5ccccc5)cc4)c4ccc([nH]4)c(-c4ccc(S(=O)(=O)Nc5ccccc5)cc4)c4nc(c(-c5ccc(S(=O)(=O)Nc6ccccc6)cc5)c5ccc2[nH]5)C=C4)C=C3)cc1
24.6 µM: OVCAR-4 ovarian
> 100 µM: NCI-H226 lung | IGROV1 ovarian
23.6 µM: M14 melanoma
16.2 µM: NCI-H460 lung
> 31.6 µM: RXF 393 renal | OVCAR-8 ovarian | A549 NSCLC | HCT-116 colon | MDA-N | MCF7 breast | SF-268 CNS | SF-295 CNS | BT-549 breast | HCT-15 colon | SW-620 colon | T-47D breast | SF-539 CNS | NCI/ADR-RES ovarian | HS 578T breast | MDA-MB-435 | A498 renal | HL-60(TB) leukemia | SNB-19 CNS | NCI-H522 lung | COLO 205 colon | EKVX NSCLC | SK-OV-3 ovarian | UACC-62 melanoma | MDA-MB-231 breast | HT29 colon | 786-0 renal | K-562 leukemia | MOLT-4 leukemia | SK-MEL-2 melanoma | PC-3 prostate | CCRF-CEM leukemia | SNB-75 CNS | NCI-H23 lung | SR leukemia | CAKI-1 renal | KM12 colon | HCC-2998 colon | SK-MEL-5 melanoma | UO-31 renal | HOP-92 NSCLC | DU-145 prostate | SN12C renal | TK-10 renal | MALME-3M melanoma | UACC-257 melanoma | OVCAR-5 ovarian | U251 CNS
22.4 µM: ACHN renal

OC1(c2ccccc2)c2ccccc2NC2=NCCN21 (configuration not stated)
45 µM: SR leukemia
> 100 µM: RXF 393 renal | OVCAR-8 ovarian | A549 NSCLC | HCT-116 colon | MDA-N | MCF7 breast | SF-268 CNS | SF-295 CNS | BT-549 breast | HCT-15 colon | SW-620 colon | T-47D breast | OVCAR-3 ovarian | SF-539 CNS | NCI/ADR-RES ovarian | HS 578T breast | MDA-MB-435 | A498 renal | HL-60(TB) leukemia | SNB-19 CNS | NCI-H522 lung | OVCAR-4 ovarian | EKVX NSCLC | NCI-H460 lung | SK-OV-3 ovarian | UACC-62 melanoma | MDA-MB-231 breast | HT29 colon | 786-0 renal | SK-MEL-2 melanoma | PC-3 prostate | NCI-H226 lung | HOP-62 NSCLC | SNB-75 CNS | NCI-H23 lung | CAKI-1 renal | KM12 colon | ACHN renal | SK-MEL-5 melanoma | UO-31 renal | HOP-92 NSCLC | SK-MEL-28 melanoma | DU-145 prostate | SN12C renal | IGROV1 ovarian | TK-10 renal | UACC-257 melanoma | OVCAR-5 ovarian | LOX IMVI melanoma | U251 CNS | M14 melanoma
31.3 µM: HCC-2998 colon
45.8 µM: RPMI-8226 leukemia
99.6 µM: COLO 205 colon
52.2 µM: MOLT-4 leukemia

CN(C)Cc1cc(N=Nc2ccccc2)ccc1O
79.1 µM: A498 renal
> 100 µM: OVCAR-8 ovarian | A549 NSCLC | HCT-116 colon | MDA-N | MCF7 breast | SF-268 CNS | SF-295 CNS | BT-549 breast | HCT-15 colon | SW-620 colon | T-47D breast | OVCAR-3 ovarian | SF-539 CNS | NCI/ADR-RES ovarian | HS 578T breast | MDA-MB-435 | HL-60(TB) leukemia | SNB-19 CNS | COLO 205 colon | EKVX NSCLC | NCI-H460 lung | MDA-MB-231 breast | HT29 colon | 786-0 renal | MOLT-4 leukemia | SK-MEL-2 melanoma | PC-3 prostate | NCI-H226 lung | HOP-62 NSCLC | CCRF-CEM leukemia | SNB-75 CNS | NCI-H23 lung | SR leukemia | CAKI-1 renal | KM12 colon | HCC-2998 colon | ACHN renal | HOP-92 NSCLC | SK-MEL-28 melanoma | DU-145 prostate | SN12C renal | IGROV1 ovarian | TK-10 renal | MALME-3M melanoma | OVCAR-5 ovarian | LOX IMVI melanoma | RPMI-8226 leukemia | U251 CNS | M14 melanoma
29.4 µM: SK-MEL-5 melanoma
73.9 µM: NCI-H522 lung
58.1 µM: K-562 leukemia
76.9 µM: UACC-257 melanoma
89.6 µM: UO-31 renal
69.2 µM: RXF 393 renal | UACC-62 melanoma
